Source: PubChem BioAssay AID1996
In brackets after ≈: the same amount, converted by molar mass.

Conditions: buffer; pH 7.4; 200.0 µM

SMILES | solubility kinetic [µg/mL]
COC(=O)C/C=N/N=C1/NC(=O)/C(=C/C(=O)O)S1 | > 40.7
CC(C)(Oc1ccc(Cl)cc1)C(=O)NC1CC1 | > 38.1
CSc1ncccc1C(=O)OCC(=O)c1ccc[nH]1 | 9.7 (≈ 35.1 µM)
Cc1cc(NC(=O)OC2CCCCC2)ccc1[N+](=O)[O-] | 0.4 (≈ 1.44 µM)
CC1CCCC(C)N1C(=O)COc1cccc(Oc2ccccc2)c1 (stereo not given) | 20.8 (≈ 61.3 µM)
CC(C)C(=O)N1CC(=O)Nc2ccc(F)cc2C1c1ccc(F)cc1 (stereo not given) | > 51.7
c1ccc(-c2ccc(-c3ccncn3)cc2)cc1 | < 0.2
Nc1cc(=O)[nH]c(SCC(=O)Nc2ccc([N+](=O)[O-])cc2)n1 | > 48.2
N/C(Cc1cccc2ccccc12)=N\O | 15.2 (≈ 75.9 µM)
C=CCn1c(O)c(C(C)=NCCCN(C)C)c(=O)[nH]c1=O | > 44.2
O=C(CSCc1ccc(C(=O)O)cc1)Nc1ccc2ccccc2c1 | > 52.7
O=C(OCC(=O)N1CCCCC1)c1c[nH]c2ccccc12 | > 42.9
N#CCc1nc2ccc(S(=O)(=O)N3CCOCC3)cc2s1 | 37.2 (≈ 115 µM)
O=C(O)CCn1c(-c2ccccn2)nc2ccccc21 | > 40.1
COc1ccc(CNC(=O)COC(=O)c2cc(S(=O)(=O)N3CCOCC3)ccc2O)cc1OC | > 74.2
CN(C)S(=O)(=O)c1cccc(C(=O)NCC2CCCCC2)c1 | 2.8 (≈ 8.63 µM)
CC(CCc1ccccc1)NCCC#N.Cl (stereo not given) | > 35.8
CC(=O)c1ccc(NC(=O)/C(C#N)=C/c2ccncc2)cc1 | 43.2 (≈ 148 µM)
O=C(OCc1cccc([N+](=O)[O-])c1)c1ccc[nH]c1=O | > 41.1
O=C(CSc1nc2ccccc2o1)Nc1nccs1 | 2 (≈ 6.86 µM)

SMILES | solubility kinetic [µg/mL]
O=C(CN1C(=O)C2CC=CCC2C1=O)Nc1nc(-c2ccc(F)c(F)c2)cs1 (stereo not given) | 4.8 (≈ 11.9 µM)
COc1ccc(C(=O)Cn2cnc3ccccc3c2=O)cc1OC | 42.3 (≈ 130 µM)
C#CCn1cnc2c(oc3ccccc32)c1=O | > 33.6
Cl.O=C(Nc1cccc(F)c1)[C@@H]1CCCN1 | > 36.7
Cc1ccc(C(=O)NCCNC(=O)c2ccco2)cn1 | 31.7 (≈ 116 µM)
O=C(CN1C2CCCC1CC(NC(=O)c1ccccc1)C2)NC1CC1 (stereo not given) | > 51.2
CCOn1c(=O)c(-c2ccc(C)cc2)[n+]([O-])c2ccccc21 | 33.5 (≈ 113 µM)
S=C(NCc1ccc(Cl)cc1)NN1CCOCC1 | > 42.9
CC(=O)c1ccc(Sc2ccccn2)c([N+](=O)[O-])c1 | 38 (≈ 139 µM)
O=C(Cn1c(=S)[nH]c2ncccc2c1=O)NCCc1ccccc1 | 2.1 (≈ 6.17 µM)
CCOC(=O)Cc1csc(NC(=O)c2cccc(Cl)c2)n1 | 6.9 (≈ 21.2 µM)
Cc1ccc(CNCCCSc2ncccn2)cc1 | 36.3 (≈ 133 µM)
COc1cc2[nH]c(=S)nc(NCc3cccnc3)c2cc1OC | 12.2 (≈ 37.2 µM)
O=C1CSC(c2ccccc2)N1Cc1ccccn1 (stereo not given) | > 40.6
CC(C)C(OC(=O)c1ccco1)C(=O)NC1CCCC1 (stereo not given) | > 41.9
CN(c1ccccc1)S(=O)(=O)c1cccc(C(=O)NC2CCCC2)c1 | 47.3 (≈ 132 µM)
Cc1ccsc1C(=O)C1CCCN(Cc2ccc(O)cc2)C1 (stereo not given) | 36.8 (≈ 117 µM)
O=C(CSc1ncccn1)NCCC1=CCCCC1 | > 41.6
Cc1ccsc1C(=O)OCC(=O)NCc1ccccc1 | 10.9 (≈ 37.7 µM)
Cc1cccc(-c2nc3sc(C)cc3c(=O)o2)c1 | < 0.6

SMILES | solubility kinetic [µg/mL]
COc1ccc(CCC(=O)NCc2ccccc2Cl)cc1OC | > 50.1
CC(=O)N1CCN(CC(=O)Nc2cc(F)ccc2C)CC1 | > 44
O=C(NCCCn1ccnc1)c1ccc(OCC(F)(F)F)cc1 | 43.4 (≈ 133 µM)
Cc1cccc(N=C2NC(=O)/C(=C/c3cccnc3)S2)c1C | 5.1 (≈ 16.5 µM)
CCCCNC(=S)N1CCn2cccc2C1c1ccccc1 (stereo not given) | 5.5 (≈ 17.5 µM)
CS/C(=C\C(=O)c1ccco1)Nc1ccccc1Cl | 10.4 (≈ 35.4 µM)
Cc1cccc(/C=N/NC(=O)c2cc(C)nc3ccccc23)n1 | > 45.7
COCCOC(=O)C(CC(=O)O)NCc1ccco1 (stereo not given) | > 40.7
Cc1cc(C)n2c(=O)c3ccc(Cl)cc3nc2c1C#N | 1.3 (≈ 4.58 µM)
N#Cc1ccc(C(=O)CN2CCN(c3ccccc3)CC2)cc1 | 34 (≈ 111 µM)
Nc1ccc(N2CCOCC2)c(S(=O)(=O)Nc2ccccc2Cl)c1 | 31.7 (≈ 86.2 µM)
COc1cccc(CNC(C)C(=O)Nc2ccc(S(=O)(=O)N3CCCC3)cc2)c1 (stereo not given) | > 62.6
Cn1c(=O)cc(Nc2ccc(Cl)cc2)[nH]c1=O | 8.7 (≈ 34.6 µM)
CC1(C)Cc2c(sc3c2c(N)nc(=S)n3Cc2ccccc2)CO1 | 2.3 (≈ 6.43 µM)
CN(C)C(CNC(=O)c1cc2ccccc2o1)c1ccco1 (stereo not given) | > 44.8
Cc1cc(NC(=O)CS(=O)(=O)c2ccc(Cl)cc2)no1 | 14.4 (≈ 45.8 µM)
CCCNC(=O)CN1C(=O)c2ccccc2Sc2ncccc21 | > 49.1
Cc1ccc(C(=O)Nc2ccc(S(=O)(=O)N3CCCC3)cc2)cc1 | 1.6 (≈ 4.65 µM)
COC(=O)c1cc(C(=O)OCC(=O)N2CCCCC2)cc([N+](=O)[O-])c1 | > 52.5
CC(=O)Nc1ccccc1-c1nc2cc(C#N)c(C#N)cc2[nH]c1=O | > 49.4
